For this test, the target named is T1, Tyrosine-protein phosphatase non-receptor type 22 (Homo sapiens, UniProt Q9Y2R2).
T1 sequence (Q9Y2R2 whole entry): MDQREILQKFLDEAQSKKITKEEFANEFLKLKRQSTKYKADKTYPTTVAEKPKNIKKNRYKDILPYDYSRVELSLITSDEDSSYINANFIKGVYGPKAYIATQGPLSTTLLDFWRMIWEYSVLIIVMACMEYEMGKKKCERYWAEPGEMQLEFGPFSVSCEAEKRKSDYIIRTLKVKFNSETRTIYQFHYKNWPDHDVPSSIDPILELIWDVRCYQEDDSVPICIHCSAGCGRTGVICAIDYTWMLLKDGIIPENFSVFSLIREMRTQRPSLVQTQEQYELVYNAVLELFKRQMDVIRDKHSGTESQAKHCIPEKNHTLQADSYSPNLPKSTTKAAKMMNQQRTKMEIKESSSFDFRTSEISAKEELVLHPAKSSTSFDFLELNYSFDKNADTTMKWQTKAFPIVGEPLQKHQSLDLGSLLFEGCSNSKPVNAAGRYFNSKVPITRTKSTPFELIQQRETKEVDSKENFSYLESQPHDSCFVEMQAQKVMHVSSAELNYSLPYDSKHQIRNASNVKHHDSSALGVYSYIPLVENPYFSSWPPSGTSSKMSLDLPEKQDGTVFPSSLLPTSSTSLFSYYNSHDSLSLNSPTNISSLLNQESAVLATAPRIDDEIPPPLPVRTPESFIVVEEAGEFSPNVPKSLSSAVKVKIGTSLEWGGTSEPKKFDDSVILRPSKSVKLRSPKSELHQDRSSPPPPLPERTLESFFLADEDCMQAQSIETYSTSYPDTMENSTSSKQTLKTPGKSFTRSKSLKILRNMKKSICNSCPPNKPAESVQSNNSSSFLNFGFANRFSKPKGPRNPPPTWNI
The test is described as follows: PubChem AID 2140.

Structures are written as SMILES.

For `CCOc1ccc2nc(NC(=O)CSc3cc(O)c4c(C)c(C)sc4n3)sc2c1` [2-[(2,3-dimethyl-4-oxidanylidene-5H-thieno[2,3-b]pyridin-6-yl)sulfanyl]-N-(6-ethoxy-1,3-benzothiazol-2-yl)ethanamide], the IC50 came to 43.4 µM.

Values taken from BindingDB's records for doi:10.7270/Q2ZP44JJ (Burnham Center For Chemical Genomics, 2009).
